# In paper PMC7936271, “Discovery and characterization of bromodomain 2–specific inhibitors of BRDT” (Proceedings of the National Academy of Sciences of the …, 2021):
# pIC50: −log10 of the molar value. “And” between values parts separate entries of the source, which are not always exact repeats. Identical values can stand only once. “Also recorded” adds a separate entry of the source. Like-named read-outs stand apart in the source and are kept apart here.
# Columns and labels:
# [1] = molecular target: BRDT-BD1
# [2] = molecular target: BRDT-BD2
# [3] = molecular target: BRDT-BD2 (Homo sapiens, UniProt Q58F21); experiment: AlphaScreen competition assay with biotinylated JQ1, BRDT-BD2; format: binding; set-up: BRDT-BD2, NP_001717.3 amino acid 269− 380; made in house; host or cells: E. coli NiCo21 (DE3); settings: for BRDT-BD2 activity / affinity: result in words
# [4] = molecular target: T1, BRDT-BD1 (Homo sapiens, UniProt Q58F21); experiment: AlphaScreen competition assay with biotinylated JQ1, BRDT-BD1; format: binding; settings: for inhibition at 10 µM: read-out: Inhibition at 10 µM for BRDT-BD1
# T1 construct: NP_001717.3 amino acid 21− 137; made in house; host or cells: E. coli NiCo21 (DE3)
# [5] = molecular target: BRD4-BD2 (Homo sapiens, UniProt O60885); experiment: AlphaScreen competition assay with biotinylated JQ1, BRD4-BD2; format: binding; set-up: BD2, NP_055114.1 amino acid 333− 460; made in house; host or cells: E. coli NiCo21 (DE3)
# [6] = Metabolic stability assay in human liver microsomes; format: in vitro ADME; settings: for half-life at 2 μM / t1/2, min HLM: human liver microsomes, 37 °C, data >60 min are an extrapolated estimate, 2.0 μM; for half-life at 2 μM: read-out: t1/2, min HLM
# Protocol: (§1) 2d) Metabolic stability assay in liver microsomes. […]
# (§2) The reactions are terminated by adding equivalent
# (§3) volume of ice-cold CH3OH and vortexed.
# (§4) temperature was ma i ntained at 40 °C.
# (§5) (acetonitrile containing 0.1% formic acid). […]
# [7] = molecular target: T2, BRD4-BD1 (Homo sapiens, UniProt O60885); experiment: AlphaScreen competition assay with biotinylated JQ1, BRD4-BD1; format: binding
# T2 construct: amino acid 44− 168; made in house; host or cells: E. coli NiCo21 (DE3)
# [8] = Metabolic stability assay in mouse liver microsomes; format: in vitro ADME; settings: for half-life at 2 μM / t1/2, min MLM: mouse liver microsomes, 37 °C, data >60 min are an extrapolated estimate, 2.0 μM; for half-life at 2 μM: read-out: t1/2, min MLM; for mouse microsomal stability: result in words
# Protocol: as §1, §2, §3, §4, §5
# [9] = molecular target: BRD4-BD1
# [10] = molecular target: BRD4-BD2
# [11] = ratio of AlphaScreen IC50 values
# [12] = AlphaScreen, biotinylated JQ1 as ligand, NE: no effect at 20 µM
# [13] = AlphaScreen, biotinylated JQ1 as ligand
smiles,measurement,setting,value
CC(=O)Nc1cc(NC(=O)c2ccc3c(c2)c(-c2ccc(N)nc2)nn3C(C)C)ccc1C,pIC50,[1],< 5.00
same,pIC50,[2],6.60
CC(=O)Nc1cc(NC(=O)c2ccc3c(c2)c(-c2cnc(N)cc2C)nn3C)ccc1C,pIC50,[2],6.90
CCn1nc(-c2ccc(N)nc2)c2cc(C(=O)Nc3ccc(C)c(NC(C)=O)c3)ccc21,pIC50,[1],< 5.00
same,pIC50,[2],7.10
CNC(=O)c1ccc(C(=O)Nc2cc(NC(=O)c3ccc4c(c3)c(-c3ccc(C)cc3C)nn4C)ccc2OC)cc1,pIC50,[2],7.59
CNC(=O)c1ccc(C(=O)Nc2cc(NC(=O)c3ccc4c(c3)c(-c3ccc(N)cc3)nn4C)ccc2OC)cc1,pIC50,[1],< 5.00
same,pIC50,[2],7.82
CNC(=O)c1ccc(C(=O)Nc2cc(NC(=O)c3ccc4c(c3)c(-c3ccc(N)cc3C)nn4C)ccc2OC)cc1,pIC50,[1],< 5.00
same,pIC50,[2],7.92
CNC(=O)c1ccc(C(=O)Nc2cc(NC(=O)c3ccc4c(c3)c(-c3ccc(OC)cc3)nn4C)ccc2C)cc1,pIC50,[1],< 5.00
same,pIC50,[2],6.28
CNC(=O)c1ccc(C(=O)Nc2cc(NC(=O)c3ccc4c(c3)c(-c3ccccc3C)nn4C)ccc2OC)cc1,pIC50,[1],5.20
same,pIC50,[2],7.21
COc1ccc(NC(=O)c2ccc3c(c2)c(-c2cc4ccccc4n2C)nn3C)c(C)c1,pIC50,[2],6.74
COc1ccc(NC(=O)c2ccc3c(c2)c(-c2cc4ccccc4n2C)nn3C)c(Cl)c1,pIC50,[2],< 5.90
COc1ccc(NC(=O)c2ccc3c(c2)c(-c2cc4ccccc4n2C)nn3C)c(F)c1,pIC50,[2],6.69
COc1ccc(NC(=O)c2ccc3c(c2)c(-c2cc4ccccc4n2C)nn3C)c(OC)c1,pIC50,[2],6.03
COc1ccc(NC(=O)c2ccc3c(c2)c(-c2cc4ccccc4n2C)nn3C)cc1,pIC50,[2],6.92
COc1ccc(NC(=O)c2ccc3c(c2)c(-c2cc4ccccc4n2C)nn3C)cc1C,pIC50,[2],6.95
COc1ccc(NC(=O)c2ccc3c(c2)c(-c2cc4ccccc4n2C)nn3C)cc1Cl,pIC50,[2],6.79
COc1ccc(NC(=O)c2ccc3c(c2)c(-c2cc4ccccc4n2C)nn3C)cc1F,pIC50,[2],6.92
COc1ccc(NC(=O)c2ccc3c(c2)c(-c2cc4ccccc4n2C)nn3C)cc1OC,pIC50,[2],7.00
COc1ccc(NC(=O)c2ccc3c(c2)c(-c2ccc(N)cc2C)nn3C)cc1NC(=O)c1ccccc1,pIC50,[2],7.46
Cc1cc(N)ccc1-c1nn(C)c2ccc(C(=O)Nc3ccccc3)cc12,pIC50,[1],< 5.00
same,pIC50,[2],7.05
CNC(=O)c1ccc(C(=O)Nc2cc(NC(=O)c3ccc4c(c3)c(-c3cc5ccccc5n3C)nn4C)ccc2OC)cc1 [Compound 3],BRDT-BD2 activity / affinity,[3]; AlphaScreen,low nanomolar affinity
same,pIC50,[2],7.66
CNC(=O)c1ccc(C(=O)Nc2cc(NC(=O)c3ccc4c(c3)c(-c3cc5ccccc5n3C)nn4C)ccc2C)cc1 [Compound 8],% inhibition at 10 µM,[1],11%
same,pIC50,[1],< 5.00
same,IC50,[4],> 10000 nM
same,inhibition at 10 µM,[4],11%
same,IC50,[5],31 nM
same,BRD4-BD2 vs. BRD4-BD1 (BRD4-BD2 selectivity),[5]; [11],850
same,half-life at 2 μM,[6],2.5 h
same,IC50,[7],26200 nM
same,half-life at 2 μM,[8],0.85 h
same,pIC50,[9],4.58
same,IC50,[3],13 nM
same,BRDT-BD2 activity / affinity,[3]; AlphaScreen,low nanomolar affinity
same,BRDT-BD2 vs. BRD4-BD2,[3]; [11],2.4
same,BRDT-BD2 vs. BRDT-BD1 (BRDT-BD2 selectivity),[3]; [11],>750
same,pIC50,[2],7.89
same,pIC50,[10],7.51
CNC(=O)c1ccc(C(=O)Nc2cc(NC(=O)c3ccc4c(c3)c(-c3ccc(N)nc3)nn4C)ccc2C)cc1 [Compound 10],% inhibition at 10 µM,[1],16%
same,pIC50,[1],< 5.00
same,inhibition at 10 µM,[4],16%
same,IC50,[5],46 nM
same,BRD4-BD2 vs. BRD4-BD1 (BRD4-BD2 selectivity),[5]; [11],>210
same,half-life at 2 μM,[6],4 h
same,human microsomal stability,[6]; result in words,high metabolic stability
same,IC50,[7],> 10000 nM
same,inhibition at 10 µM,[7]; read-out: Inhibition at 10 µM for BRD4-BD1,20%
same,half-life at 2 μM,[8],3.17 h
same,mouse microsomal stability,[8],high metabolic stability; also recorded: high mouse microsomal stability
same,% inhibition at 10 µM,[9],20%
same,pIC50,[9],< 5.00
same,IC50,[3],17 nM
same,BRDT-BD2 activity / affinity,[3]; AlphaScreen,slightly lower affinity than CDD-1102
same,BRDT-BD2 vs. BRD4-BD2,[3]; [11],2.7
same,BRDT-BD2 vs. BRDT-BD1 (BRDT-BD2 selectivity),[3]; [11],>600
same,pIC50,[2],7.77
same,pIC50,[10],7.34
CNC(=O)c1ccc(C(=O)Nc2cc(NC(=O)c3ccc4c(c3)c(-c3ccncc3)nn4C)ccc2C)cc1 [Compound 12],BRDT-BD2 activity / affinity,[3]; AlphaScreen,weaker-binding
same,pIC50,[2],6.01
CNC(=O)c1ccc(C(=O)Nc2cc(NC(=O)c3ccc4c(c3)c(-c3cnc(N)nc3)nn4C)ccc2C)cc1 [Compound 13],pIC50,[1],< 5.00
same,BRDT-BD2 activity / affinity,[3]; AlphaScreen,lower affinity than compound 10
same,pIC50,[2],6.86
CNC(=O)c1ccc(C(=O)Nc2cc(NC(=O)c3ccc4c(c3)c(-c3ccc(N)nc3C)nn4C)ccc2C)cc1 [Compound 14],BRDT-BD2 activity / affinity,[3]; AlphaScreen,lower affinity than compound 10
same,pIC50,[2],7.03
CNC(=O)c1ccc(C(=O)Nc2cc(NC(=O)c3ccc4c(c3)c(-c3cnc(N)cc3C)nn4C)ccc2C)cc1 [Compound 15],IC50,[4]; [12],> 20000 nM
same,BRD4-BD2 vs. BRD4-BD1 (BRD4-BD2 selectivity),[5],>140
same,IC50,[5]; [13],140 nM
same,"t1/2, min HLM",[6],3.67 h
same,IC50,[7]; [12],> 20000 nM
same,"t1/2, min MLM",[8],2.5 h
same,mouse microsomal stability,[8],high mouse microsomal stability
same,IC50,[3]; [13],22 nM
same,BRDT-BD2 activity / affinity,[3]; AlphaScreen,lower affinity than compound 10
same,BRDT-BD2 vs. BRD4-BD2,"[3]; ratio of AlphaScreen IC50 values, listed as 15 (CDD-1349)",6.4
same,BRDT-BD2 vs. BRD4-BD2,"[3]; ratio of AlphaScreen IC50 values, listed as CDD-1349",sixfold
same,pIC50,[2],7.66
same,pIC50,[10],6.85
CC(=O)Nc1cc(NC(=O)c2ccc3c(c2)c(-c2ccc(N)nc2)nn3C)ccc1C [Compound 17],pIC50,[1],< 5.00 and 4.44
same,IC50,[4]; [12],36200 nM
same,BRD4-BD2 vs. BRD4-BD1 (BRD4-BD2 selectivity),[5],490
same,IC50,[5]; [13],51 nM
same,"t1/2, min HLM",[6],8.17 h
same,IC50,[7]; [12],25100 nM
same,"t1/2, min MLM",[8],3.33 h
same,mouse microsomal stability,[8],high mouse microsomal stability
same,pIC50,[9],4.60
same,BRDT-BD2 vs. BRDT-BD1 (BRDT-BD2 selectivity),[3],770
same,IC50,[3]; [13],47 nM
same,BRDT-BD2 vs. BRD4-BD2,[3]; [11],1.1
same,pIC50,[2],7.33
same,pIC50,[10],7.29
CC(=O)Nc1cccc(NC(=O)c2ccc3c(c2)c(-c2ccc(N)cc2C)nn3C)c1 [Compound 21],pIC50,[1],< 5.00 and 4.71
same,IC50,[4]; [12],19700 nM
same,BRD4-BD2 vs. BRD4-BD1 (BRD4-BD2 selectivity),[5],670
same,IC50,[5]; [13],21 nM
same,"t1/2, min HLM",[6],3 h
same,IC50,[7]; [12],14100 nM
same,"t1/2, min MLM",[8],0.15 h
same,pIC50,[9],4.85
same,BRDT-BD2 vs. BRDT-BD1 (BRDT-BD2 selectivity),[3],"1,400"
same,IC50,[3]; [13],14 nM
same,BRDT-BD2 activity / affinity,[3]; AlphaScreen,minimal effects on potency
same,BRDT-BD2 vs. BRD4-BD2,[3]; [11],1.5
same,pIC50,[2],7.85
same,pIC50,[10],7.68
CNC(=O)c1cc(NC(=O)c2ccc3c(c2)c(-c2ccc(N)cc2C)nn3C)ccc1C [Compound 22],pIC50,[1],< 5.00 and 4.97
same,IC50,[4],10700 nM
same,IC50,[5],20 nM
same,BRD4-BD2 vs. BRD4-BD1 (BRD4-BD2 selectivity),[5]; [11],540
same,half-life at 2 μM,[6],7.67 h
same,IC50,[7],10900 nM
same,half-life at 2 μM,[8],2.5 h
same,mouse microsomal stability,[8],high mouse microsomal stability
same,pIC50,[9],4.96
same,IC50,[3],18 nM
same,BRDT-BD2 activity / affinity,[3]; AlphaScreen,minimal effects on potency
same,BRDT-BD2 vs. BRD4-BD2,[3]; [11],1.1
same,BRDT-BD2 vs. BRDT-BD1 (BRDT-BD2 selectivity),[3]; [11],590
same,pIC50,[2],7.74
same,pIC50,[10],7.70
COc1ccc(NC(=O)c2ccc3c(c2)c(-c2ccc(N)cc2C)nn3C)cc1 [Compound 24],BRDT-BD2 activity / affinity,[3]; AlphaScreen,dramatic loss of activity
same,pIC50,[2],7.27
COc1ccc(N(C)C(=O)c2ccc3c(c2)c(-c2ccc(N)cc2C)nn3C)cc1 [Compound 26],pIC50,[1],< 5.00
same,BRDT-BD2 activity / affinity,[3]; AlphaScreen,loss of potency
same,pIC50,[2],< 6.00
COc1ccc(NC(=O)c2ccc3nn(C)c(-c4ccc(N)cc4C)c3c2)cc1 [Compound 27],pIC50,[1],< 5.00
same,BRDT-BD2 activity / affinity,[3]; AlphaScreen,dramatic loss of activity; also recorded: inactivity
same,pIC50,[2],4.76
